Experimental data from ChEMBL document CHEMBL4834428 (J Med Chem, 2021).

Assays:
[1] = molecular target: T1, NAD-dependent protein deacetylase sirtuin-2 (Homo sapiens, UniProt Q8IXJ6); test: Inhibition of His6-tagged/TEV fused SIRT2 (unknown origin) expressed in Escherichia coli BL21 (DE3) preincubated for 15 mins followed by NAD+ addition and measured after 30 mins by FLucK529Ac based luminescence assay
T1 sequence (Q8IXJ6 whole entry): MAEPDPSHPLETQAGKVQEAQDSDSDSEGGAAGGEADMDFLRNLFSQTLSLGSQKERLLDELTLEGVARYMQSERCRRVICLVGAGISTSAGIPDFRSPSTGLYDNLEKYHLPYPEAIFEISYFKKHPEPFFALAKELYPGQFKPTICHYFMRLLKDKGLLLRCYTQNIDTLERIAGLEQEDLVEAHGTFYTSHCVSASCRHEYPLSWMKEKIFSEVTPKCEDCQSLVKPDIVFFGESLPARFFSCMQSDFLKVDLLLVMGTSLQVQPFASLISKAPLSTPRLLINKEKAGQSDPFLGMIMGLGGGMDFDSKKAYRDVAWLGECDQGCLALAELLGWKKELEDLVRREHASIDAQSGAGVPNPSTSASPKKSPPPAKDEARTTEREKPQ

[2] = molecular target: T2, NAD-dependent protein deacetylase sirtuin-3, mitochondrial (Homo sapiens, UniProt Q9NTG7); test: Inhibition of His6-tagged/TEV fused SIRT3 (unknown origin) expressed in Escherichia coli BL21 (DE3) preincubated for 15 mins followed by NAD+ addition and measured after 30 mins by FLucK529Ac based luminescence assay
T2 sequence (Q9NTG7 whole entry): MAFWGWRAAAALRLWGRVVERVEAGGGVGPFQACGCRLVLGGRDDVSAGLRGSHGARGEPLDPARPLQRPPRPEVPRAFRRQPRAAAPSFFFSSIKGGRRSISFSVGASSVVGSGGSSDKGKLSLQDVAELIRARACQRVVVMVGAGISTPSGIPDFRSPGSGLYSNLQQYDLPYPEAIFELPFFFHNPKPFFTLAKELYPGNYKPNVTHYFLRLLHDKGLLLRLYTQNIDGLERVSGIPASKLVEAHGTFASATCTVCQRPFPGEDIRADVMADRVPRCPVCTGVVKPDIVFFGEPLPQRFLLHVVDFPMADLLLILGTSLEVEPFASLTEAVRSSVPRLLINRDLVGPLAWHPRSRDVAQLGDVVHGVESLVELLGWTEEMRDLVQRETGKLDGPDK

[3] = molecular target: T3, NAD-dependent protein deacetylase sirtuin-1 (Homo sapiens, UniProt Q96EB6)
T3 sequence (Q96EB6 whole entry): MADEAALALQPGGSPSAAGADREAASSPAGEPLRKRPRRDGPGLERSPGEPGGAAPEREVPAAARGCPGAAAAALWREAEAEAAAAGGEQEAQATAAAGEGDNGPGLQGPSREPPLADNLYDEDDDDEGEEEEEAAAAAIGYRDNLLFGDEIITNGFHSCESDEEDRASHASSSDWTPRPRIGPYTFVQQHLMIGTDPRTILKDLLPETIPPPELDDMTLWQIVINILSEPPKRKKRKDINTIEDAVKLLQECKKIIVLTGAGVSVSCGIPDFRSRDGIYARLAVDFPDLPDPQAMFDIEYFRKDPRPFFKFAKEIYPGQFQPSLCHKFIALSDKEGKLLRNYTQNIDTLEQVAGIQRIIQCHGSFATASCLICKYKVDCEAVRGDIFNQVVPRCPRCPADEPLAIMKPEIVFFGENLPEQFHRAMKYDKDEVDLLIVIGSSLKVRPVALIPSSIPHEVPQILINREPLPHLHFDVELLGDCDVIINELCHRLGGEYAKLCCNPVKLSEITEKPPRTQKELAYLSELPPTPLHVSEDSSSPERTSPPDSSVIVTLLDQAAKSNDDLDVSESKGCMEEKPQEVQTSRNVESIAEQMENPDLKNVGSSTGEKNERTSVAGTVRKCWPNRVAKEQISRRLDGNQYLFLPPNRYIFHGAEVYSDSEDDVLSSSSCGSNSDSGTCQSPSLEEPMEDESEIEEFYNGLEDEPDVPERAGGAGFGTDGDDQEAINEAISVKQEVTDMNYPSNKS
Description: Inhibition of His6-tagged SIRT1 (unknown origin) expressed in Escherichia coli BL21 (DE3) preincubated for 15 mins followed by NAD+ addition and measured after 30 mins by FLucK529Ac based luminescence assay

NC(=O)C1CN(Cc2cccc([N+](=O)[O-])c2)c2ccccc2O1 (stereo unspecified)
IC50 [1]: 4.19 µM
IC50 [2]: > 60 µM
IC50 [3]: 0.23 µM

N#Cc1ccccc1CN1CC(C(N)=O)Oc2ccccc21 (stereo in doubt; form 1)
IC50 [1]: 47.3 µM
IC50 [2]: > 60 µM
IC50 [3]: 47.3 µM

Cc1ccccc1CN1CC(C(N)=O)Oc2ccccc21 (stereo unspecified)
IC50 [1]: 22.2 µM
IC50 [2]: > 60 µM
IC50 [3]: 2.49 µM

CC(C)(C)OC(=O)CN1CC(C(N)=O)Oc2ccccc21 (stereo unspecified)
IC50 [1]: > 60 µM
IC50 [2]: > 60 µM
IC50 [3]: > 60 µM

NC(=O)C1CN(Cc2ccccc2Cl)c2ccccc2O1 (stereo unspecified)
IC50 [1]: 33.6 µM
IC50 [2]: > 60 µM
IC50 [3]: 0.67 µM

NC(=O)C1CN(Cc2cnnn2Cc2ccccc2)c2ccccc2O1 (stereo unspecified)
IC50 [1]: 32.6 µM
IC50 [2]: > 60 µM
IC50 [3]: 14.1 µM

CC(C)(C)OC(=O)c1ccc(CN2CC(C(N)=O)Oc3ccccc32)cc1 (stereo unspecified)
IC50 [1]: 42 µM
IC50 [2]: > 60 µM
IC50 [3]: 20.1 µM

NC(=O)C1CN(Cc2ccc(-c3ccccc3)cc2)c2ccccc2O1 (stereo unspecified)
IC50 [1]: > 60 µM
IC50 [2]: > 60 µM
IC50 [3]: > 60 µM

NC(=O)C1CN(Cc2ccc(C(F)(F)F)cc2)c2ccccc2O1 (stereo unspecified)
IC50 [1]: 22.8 µM
IC50 [2]: > 60 µM
IC50 [3]: 28.5 µM

Cc1ccc(NC(=O)N2CC(C(N)=O)Oc3ccccc32)cc1 (stereo unspecified)
IC50 [1]: > 60 µM
IC50 [2]: > 60 µM
IC50 [3]: > 60 µM

Cc1ccc(S(=O)(=O)N2CC(C(N)=O)Oc3ccccc32)cc1 (stereo unspecified)
IC50 [1]: > 60 µM
IC50 [2]: > 60 µM
IC50 [3]: > 60 µM

NC(=O)C1CNc2ccccc2O1 (stereo unspecified)
IC50 [1]: > 60 µM
IC50 [2]: > 60 µM
IC50 [3]: > 60 µM

Cc1cccc(C)c1CN1CC(C(N)=O)Oc2ccccc21 (stereo unspecified)
IC50 [1]: > 60 µM
IC50 [2]: > 60 µM
IC50 [3]: 37.4 µM

NC(=O)C1CN(Cc2ccc([N+](=O)[O-])cc2)c2ccccc2O1 (stereo unspecified)
IC50 [1]: 34.7 µM
IC50 [2]: > 60 µM
IC50 [3]: 1.06 µM

NC(=O)C1CN(Cc2ccc3c(c2)OCO3)c2ccccc2O1 (stereo unspecified)
IC50 [1]: 26 µM
IC50 [2]: > 60 µM
IC50 [3]: 1.9 µM

COc1cccc(CN2CC(C(N)=O)Oc3ccccc32)c1 (stereo unspecified)
IC50 [1]: 15.4 µM
IC50 [2]: > 60 µM
IC50 [3]: 2.13 µM

CC(=O)N1CC(C(N)=O)Oc2ccccc21 (stereo unspecified)
IC50 [1]: > 60 µM
IC50 [2]: > 60 µM
IC50 [3]: > 60 µM

C#CCN1CC(C(N)=O)Oc2ccccc21 (stereo unspecified)
IC50 [1]: > 60 µM
IC50 [2]: > 60 µM
IC50 [3]: > 60 µM

CC(C)CC(=O)N1CC(C(N)=O)Oc2ccccc21 (stereo unspecified)
IC50 [1]: > 60 µM
IC50 [2]: > 60 µM
IC50 [3]: > 60 µM

NC(=O)C1CN(Cc2csc(N)n2)c2ccccc2O1 (stereo unspecified)
IC50 [1]: > 60 µM
IC50 [2]: > 60 µM
IC50 [3]: 1.48 µM

CC(=O)Nc1ccccc1CN1CC(C(N)=O)Oc2ccccc21 (stereo unspecified)
IC50 [1]: > 60 µM
IC50 [2]: > 60 µM
IC50 [3]: 31.6 µM

NC(=O)C1CN(Cc2ccccc2)c2ccccc2O1 (stereo unspecified)
IC50 [1]: > 60 µM
IC50 [2]: > 60 µM
IC50 [3]: 8.54 µM

N#Cc1ccccc1CN1CC(C(N)=O)Oc2ccccc21 (stereo in doubt; form 2)
IC50 [1]: 34 µM
IC50 [2]: > 60 µM
IC50 [3]: 0.11 µM

N#Cc1cccc(NC(=O)N2CC(C(N)=O)Oc3ccccc32)c1 (stereo unspecified)
IC50 [1]: > 60 µM
IC50 [2]: > 60 µM
IC50 [3]: > 60 µM

NC(=O)C1CN(Cc2ccccc2O)c2ccccc2O1 (stereo unspecified)
IC50 [1]: 12.3 µM
IC50 [2]: > 60 µM
IC50 [3]: 0.82 µM

NC(=O)C1CN(Cc2ccccc2Br)c2ccccc2O1 (stereo unspecified)
IC50 [1]: 16.6 µM
IC50 [2]: > 60 µM
IC50 [3]: 0.56 µM

CCOC(=O)C1CN(Cc2ccccc2)c2ccccc2O1 (stereo unspecified)
IC50 [1]: > 60 µM
IC50 [2]: > 60 µM
IC50 [3]: > 60 µM

COC(=O)c1ccc(CN2CC(C(N)=O)Oc3ccccc32)cc1 (stereo unspecified)
IC50 [1]: > 60 µM
IC50 [2]: > 60 µM
IC50 [3]: 3.45 µM

CC(=O)Nc1ccc(CN2CC(C(N)=O)Oc3ccccc32)cc1 (stereo unspecified)
IC50 [1]: > 60 µM
IC50 [2]: > 60 µM
IC50 [3]: 10.4 µM

NC(=O)C1CN(Cc2ccccc2C(=O)O)c2ccccc2O1 (stereo unspecified)
IC50 [1]: > 60 µM
IC50 [2]: > 60 µM
IC50 [3]: 13.9 µM

CN1CC(C(N)=O)Oc2ccccc21 (stereo unspecified)
IC50 [1]: > 60 µM
IC50 [2]: > 60 µM
IC50 [3]: > 60 µM

CNC(=O)C1CN(Cc2ccccc2)c2ccccc2O1 (stereo unspecified)
IC50 [1]: > 60 µM
IC50 [2]: > 60 µM
IC50 [3]: > 60 µM

NC(=O)C1CN(Cc2ccccc2N)c2ccccc2O1 (stereo unspecified)
IC50 [1]: 36.1 µM
IC50 [2]: > 60 µM
IC50 [3]: 4.91 µM

NC(=O)C1CN(Cc2ccccc2[N+](=O)[O-])c2ccccc2O1 (stereo unspecified)
IC50 [1]: 10.6 µM
IC50 [2]: > 60 µM

CC(=O)Nc1cccc(CN2CC(C(N)=O)Oc3ccccc32)c1 (stereo unspecified)
IC50 [1]: > 60 µM
IC50 [2]: > 60 µM
IC50 [3]: 2.4 µM

COc1ccc(CN2CC(C(N)=O)Oc3ccccc32)cc1 (stereo unspecified)
IC50 [1]: 31.8 µM
IC50 [2]: > 60 µM
IC50 [3]: 1.45 µM

NC(=O)C1CN(Cc2ccccc2C(F)(F)F)c2ccccc2O1 (stereo unspecified)
IC50 [1]: 25 µM
IC50 [2]: > 60 µM
IC50 [3]: 0.97 µM

NC(=O)C1CN(C(=O)c2ccccc2)c2ccccc2O1 (stereo unspecified)
IC50 [1]: > 60 µM
IC50 [2]: > 60 µM
IC50 [3]: > 60 µM

NC(=O)C1CN(C(=O)c2ccc(CCl)cc2)c2ccccc2O1 (stereo unspecified)
IC50 [1]: > 60 µM
IC50 [2]: > 60 µM
IC50 [3]: 48.8 µM

COc1ccc(C(=O)N2CC(C(N)=O)Oc3ccccc32)cc1 (stereo unspecified)
IC50 [1]: > 60 µM
IC50 [3]: > 60 µM

NC(=O)C1CN(S(=O)(=O)c2cccc3ccccc23)c2ccccc2O1 (stereo unspecified)
IC50 [1]: > 60 µM
IC50 [2]: > 60 µM
IC50 [3]: > 60 µM

NC(=O)C1CN(Cc2cc(C(F)(F)F)cc(C(F)(F)F)c2)c2ccccc2O1 (stereo unspecified)
IC50 [1]: 0.52 µM
IC50 [2]: > 60 µM
IC50 [3]: 6.04 µM

O=C(O)C1CNc2ccccc2O1 (stereo unspecified)
IC50 [1]: > 60 µM
IC50 [2]: > 60 µM
IC50 [3]: > 60 µM

O=C(O)C1CN(Cc2ccccc2)c2ccccc2O1 (stereo unspecified)
IC50 [1]: > 60 µM
IC50 [2]: > 60 µM
IC50 [3]: > 60 µM

N#Cc1cccc(CN2CC(C(N)=O)Oc3ccccc32)c1 (stereo unspecified)
IC50 [1]: 11.2 µM
IC50 [2]: > 60 µM
IC50 [3]: 0.43 µM

CC(=O)Nc1nc(CN2CC(C(N)=O)Oc3ccccc32)cs1 (stereo unspecified)
IC50 [1]: > 60 µM
IC50 [3]: 0.62 µM

NC(=O)C1CN(Cc2ccccc2I)c2ccccc2O1 (stereo unspecified)
IC50 [1]: > 60 µM
IC50 [2]: > 60 µM
IC50 [3]: 0.47 µM

COC(=O)c1ccccc1CN1CC(C(N)=O)Oc2ccccc21 (stereo unspecified)
IC50 [1]: > 60 µM
IC50 [2]: > 60 µM
IC50 [3]: 0.49 µM

CS(=O)(=O)N1CC(C(N)=O)Oc2ccccc21 (stereo unspecified)
IC50 [1]: > 60 µM
IC50 [2]: > 60 µM
IC50 [3]: > 60 µM

O=C(C1CN(Cc2ccccc2)c2ccccc2O1)N1CCCCC1 (stereo unspecified)
IC50 [1]: > 60 µM
IC50 [2]: > 60 µM
IC50 [3]: > 60 µM

NC(=O)C1CN(Cc2cn(Cc3ccccc3)nn2)c2ccccc2O1 (stereo unspecified)
IC50 [1]: 41.9 µM
IC50 [2]: > 60 µM
IC50 [3]: 8.05 µM

NC(=O)C1CN(Cc2cccnc2)c2ccccc2O1 (stereo unspecified)
IC50 [1]: 58 µM
IC50 [2]: > 60 µM
IC50 [3]: 4.7 µM

CCOC(=O)C1CNc2ccccc2O1 (stereo unspecified)
IC50 [1]: > 60 µM
IC50 [2]: > 60 µM
IC50 [3]: > 60 µM

NC(=O)C1CN(Cc2cccc(Br)c2)c2ccccc2O1 (stereo unspecified)
IC50 [1]: 1.76 µM
IC50 [2]: > 60 µM
IC50 [3]: 1.27 µM

NC(=O)C1CN(Cc2ccc3nonc3c2)c2ccccc2O1 (stereo unspecified)
IC50 [1]: 0.6 µM
IC50 [2]: > 60 µM
IC50 [3]: > 60 µM

NC(=O)C1CN(Cc2ccccn2)c2ccccc2O1 (stereo unspecified)
IC50 [1]: > 60 µM
IC50 [2]: > 60 µM
IC50 [3]: 2.1 µM

COc1ccc(NC(=O)N2CC(C(N)=O)Oc3ccccc32)cc1 (stereo unspecified)
IC50 [1]: > 60 µM
IC50 [2]: > 60 µM
IC50 [3]: > 60 µM

CN(C)C(=O)C1CN(Cc2ccccc2)c2ccccc2O1 (stereo unspecified)
IC50 [1]: > 60 µM
IC50 [2]: > 60 µM
IC50 [3]: > 60 µM
